From the supplement of paper PMC10307832

What was measured:
Experiment in all cases: relative viability (nuclei count vs DMSO), 5 days (fraction); higher = more cells survive
[1] = compound: CCn1c(-c2nonc2N)nc2c(C#CC(C)(C)O)ncc(OC[C@H]3CCCNC3)c21 + N=C(N)NC(=N)NCCc1ccccc1 [Phenformin] (partner 250 µM)
Procedure, shortened: (§1)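 Medians of duplicate plates are given as relative viability. That measure is the nuclei count in treated wells divided by the count in vehicle wells. Counts were taken on 4× images of lung cancer cell lines in 1536-well plates, 5 days after pin-tool dosing the day after seeding with one drug alone or a fixed anchor-drug dose plus five library-drug doses (not always all listed) in √10 steps.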

[2] = compound: CCn1c(-c2nonc2N)nc2c(C#CC(C)(C)O)ncc(OC[C@H]3CCCNC3)c21 + Nc1ncn([C@H]2C[C@H](O)[C@@H](CO)O2)c(=O)n1 [Decitabine] (partner 2 µM)
Procedure, shortened: as §1

[3] = compound: CCn1c(-c2nonc2N)nc2c(C#CC(C)(C)O)ncc(OC[C@H]3CCCNC3)c21 + O=C(CCCCCCC(=O)Nc1ccccc1)NO [Vorinostat] (partner 1 µM)
Procedure, shortened: as §1

BAM7 + Palbociclib = compound: CCOC1=CC=CC=C1N=NC2=C(NN(C2=O)C3=NC(=CS3)C4=CC=CC=C4)C [BAM7] + CC(=O)c1c(C)c2cnc(Nc3ccc(N4CCNCC4)cn3)nc2n(C2CCCC2)c1=O [Palbociclib] (partner 0.5 µM)
Procedure, shortened: as §1

Which relative viability ([1]; first compound 0.01 µM) does the source give for UMC-11 here?
Its relative viability is 0.35.

And the relative viability ([1]; first compound 0.03162 µM)?
Its relative viability is 0.351.

And the relative viability ([1]; first compound 0.1 µM)?
Its relative viability is 0.31.

And the relative viability ([1]; first compound 0.3162 µM)?
The relative viability was 0.32.

What about the relative viability ([1]; first compound 1 µM) of the same cell line?
The relative viability was 0.301.

And the relative viability ([2]; first compound 0.01 µM)?
Its relative viability is 0.533.

What about the relative viability ([2]; first compound 0.03162 µM) of the same cell line?
The relative viability was 0.46.

What about the relative viability ([2]; first compound 0.1 µM) of the same cell line?
The relative viability was 0.6.

And the relative viability ([2]; first compound 0.3162 µM)?
The relative viability was 0.686.

What about the relative viability ([2]; first compound 1 µM) of the same cell line?
Its relative viability is 0.607.

What about the relative viability ([3]; first compound 0.01 µM) of the same cell line?
Its relative viability is 0.423.

And the relative viability ([3]; first compound 0.03162 µM)?
Its relative viability is 0.375.

And the relative viability ([3]; first compound 0.1 µM)?
Its relative viability is 0.357.

And the relative viability ([3]; first compound 0.3162 µM)?
Its relative viability is 0.316.

What about the relative viability ([3]; first compound 1 µM) of the same cell line?
Its relative viability is 0.346.

What about the relative viability (BAM7 + Palbociclib; first compound 0.5 µM) of the same cell line?
The relative viability was 0.32.

What about the relative viability (BAM7 + Palbociclib; first compound 5 µM) of the same cell line?
The relative viability was 0.341.

What about the relative viability (BAM7 + Palbociclib; first compound 15.81 µM) of the same cell line?
The relative viability was 0.342.

And the relative viability (BAM7 + Palbociclib; first compound 50 µM)?
The relative viability was 0.336.
